Reference: ChEMBL document CHEMBL3885861, “Open TG-GATES”

Species: Rattus norvegicus
Experiment: Open TG-GATES - Regimen: Daily Repeat
Type: toxicity, organism-based, Sprague-Dawley
Parameters: regimen Daily Repeat, gender Male, age 6 weeks
Details: in vivo, po, route gavage; for APTT / Bas / Eos / Fbg / Hb / Ht / Lym / MCH / MCHC / MCV / Mono / Neu / PT / Plat / RBC / Ret / WBC: tissue Blood; for KIDNEY_L / KIDNEY_R / KIDNEY_TOTAL: tissue Kidney; for LIVER: tissue Liver; for A/G / ALP / ALT / AST / BUN / CRE / Ca / Cl / DBIL / GLC / IP / K / LDH / Na / PL / RALB / TBIL / TC / TG / TP / gamma-GTP: tissue Plasma
[1] = 0 mg/kg, 72 h, dose level Control, time 3 day
[2] = 0 mg/kg, […], dose level Control, time 7 day
[3] = 0 mg/kg, […], dose level Control, time 14 day
[4] = 0 mg/kg, […], dose level Control, time 28 day
[5] = 50 mg/kg, 72 h, dose level Low, time 3 day
[6] = 50 mg/kg, […], dose level Low, time 7 day
[7] = 50 mg/kg, […], dose level Low, time 14 day
[8] = 50 mg/kg, […], dose level Low, time 28 day

CN1C(=O)CCS(=O)(=O)C1c1ccc(Cl)cc1 (centres undefined) [CHLORMEZANONE]
TERMINAL_BW [1]: 227.8 g
APTT [1]: 15.7 s
Bas [1]: 0%
Eos [1]: 1%
Fbg [1]: 283.6 mg/dL
Hb [1]: 13.4 g/dL
Ht [1]: 39.1%
Lym [1]: 77.8%
MCH [1]: 22.1 pg
MCHC [1]: 34.4%
MCV [1]: 64.3 fL
Mono [1]: 3%
Neu [1]: 17.8%
PT [1]: 12 s
Plat [1]: 114.7 x10_4/uL
RBC [1]: 608.2 x10_4/ul
Ret [1]: 6.7%
WBC [1]: 81.1 x10_2/uL
KIDNEY_L [1]: 0.9 g
KIDNEY_R [1]: 0.9 g
KIDNEY_TOTAL [1]: 1.8 g
LIVER [1]: 10.6 g
A/G [1]: 0.9
ALP [1]: 1545.4 IU/L
ALT [1]: 48.4 IU/L
AST [1]: 68.2 IU/L
BUN [1]: 14.6 mg/dL
CRE [1]: 0.2 mg/dL
Ca [1]: 10.9 mg/dL
Cl [1]: 108.4 meq/L
DBIL [1]: 0.01 mg/dL
GLC [1]: 193.6 mg/dL
IP [1]: 6.7 mg/dL
K [1]: 4.2 meq/L
LDH [1]: 63.4 IU/L
Na [1]: 143.4 meq/L
PL [1]: 148.4 mg/dL
RALB [1]: 2.7 g/dL
TBIL [1]: 0.026 mg/dL
TC [1]: 88.8 mg/dL
TG [1]: 90 mg/dL
TP [1]: 5.8 g/dL
gamma-GTP [1]: 1.2 IU/L
TERMINAL_BW [2]: 269.2 g
TERMINAL_BW [3]: 301.6 g
TERMINAL_BW [4]: 393 g
APTT [2]: 17.6 s
Bas [2]: 0%
Eos [2]: 0.8%
Fbg [2]: 294.6 mg/dL
Hb [2]: 13.9 g/dL
Ht [2]: 41%
Lym [2]: 79.4%
MCH [2]: 22.1 pg
MCHC [2]: 33.9%
MCV [2]: 65.3 fL
Mono [2]: 2.4%
Neu [2]: 16.6%
PT [2]: 11.9 s
Plat [2]: 113.1 x10_4/uL
RBC [2]: 627.6 x10_4/ul
Ret [2]: 6.5%
WBC [2]: 91.2 x10_2/uL
APTT [3]: 16.9 s
Bas [3]: 0%
Eos [3]: 1%
Fbg [3]: 306.8 mg/dL
Hb [3]: 14.5 g/dL
Ht [3]: 41.2%
Lym [3]: 76.2%
MCH [3]: 20.7 pg
MCHC [3]: 35.3%
MCV [3]: 58.8 fL
Mono [3]: 2%
Neu [3]: 20.4%
PT [3]: 11.8 s
Plat [3]: 123 x10_4/uL
RBC [3]: 701 x10_4/ul
Ret [3]: 3.5%
WBC [3]: 70.8 x10_2/uL
APTT [4]: 17.9 s
Bas [4]: 0%
Eos [4]: 1%
Fbg [4]: 293.6 mg/dL
Hb [4]: 15 g/dL
Ht [4]: 42.2%
Lym [4]: 75.4%
MCH [4]: 20.2 pg
MCHC [4]: 35.5%
MCV [4]: 56.8 fL
Mono [4]: 2.4%
Neu [4]: 20.6%
PT [4]: 11.8 s
Plat [4]: 99.4 x10_4/uL
RBC [4]: 744.8 x10_4/ul
Ret [4]: 2.6%
WBC [4]: 82.8 x10_2/uL
KIDNEY_L [2]: 1 g
KIDNEY_R [2]: 1 g
KIDNEY_TOTAL [2]: 2.1 g
KIDNEY_L [3]: 1.2 g
KIDNEY_R [3]: 1.1 g
KIDNEY_TOTAL [3]: 2.3 g
KIDNEY_L [4]: 1.4 g
KIDNEY_R [4]: 1.3 g
KIDNEY_TOTAL [4]: 2.7 g
LIVER [2]: 13 g
LIVER [3]: 12.6 g
LIVER [4]: 16 g
A/G [2]: 0.9
ALP [2]: 1745 IU/L
ALT [2]: 44 IU/L
AST [2]: 68.2 IU/L
BUN [2]: 16.6 mg/dL
CRE [2]: 0.2 mg/dL
Ca [2]: 11.6 mg/dL
Cl [2]: 107.8 meq/L
DBIL [2]: 0.016 mg/dL
GLC [2]: 181.4 mg/dL
IP [2]: 6.9 mg/dL
K [2]: 4.3 meq/L
LDH [2]: 89.8 IU/L
Na [2]: 144 meq/L
PL [2]: 152 mg/dL
RALB [2]: 2.8 g/dL
TBIL [2]: 0.034 mg/dL
TC [2]: 82.6 mg/dL
TG [2]: 121.6 mg/dL
TP [2]: 6 g/dL
gamma-GTP [2]: 1 IU/L
A/G [3]: 0.8
ALP [3]: 1484.4 IU/L
ALT [3]: 48 IU/L
AST [3]: 63.8 IU/L
BUN [3]: 14.4 mg/dL
CRE [3]: 0.2 mg/dL
Ca [3]: 11.2 mg/dL
Cl [3]: 107.8 meq/L
DBIL [3]: 0.008 mg/dL
GLC [3]: 191.6 mg/dL
IP [3]: 6.3 mg/dL
K [3]: 4 meq/L
LDH [3]: 47 IU/L
Na [3]: 143.6 meq/L
PL [3]: 136.4 mg/dL
RALB [3]: 2.8 g/dL
TBIL [3]: 0.064 mg/dL
TC [3]: 70.8 mg/dL
TG [3]: 74.8 mg/dL
TP [3]: 6.1 g/dL
gamma-GTP [3]: 1 IU/L
A/G [4]: 0.8
ALP [4]: 1035.2 IU/L
ALT [4]: 45.6 IU/L
AST [4]: 62.8 IU/L
BUN [4]: 14 mg/dL
CRE [4]: 0.3 mg/dL
Ca [4]: 10.8 mg/dL
Cl [4]: 106.2 meq/L
DBIL [4]: 0.006 mg/dL
GLC [4]: 183.2 mg/dL
IP [4]: 6 mg/dL
K [4]: 4 meq/L
LDH [4]: 57 IU/L
Na [4]: 142.4 meq/L
PL [4]: 143.6 mg/dL
RALB [4]: 2.8 g/dL
TBIL [4]: 0.062 mg/dL
TC [4]: 74.8 mg/dL
TG [4]: 88 mg/dL
TP [4]: 6.3 g/dL
gamma-GTP [4]: 1 IU/L
TERMINAL_BW [5]: 226.8 g
APTT [5]: 15.5 s
Bas [5]: 0%
Eos [5]: 1%
Fbg [5]: 275.6 mg/dL
Hb [5]: 13.5 g/dL
Ht [5]: 40.1%
Lym [5]: 75.2%
MCH [5]: 22 pg
MCHC [5]: 33.8%
MCV [5]: 65.1 fL
Mono [5]: 2.8%
Neu [5]: 20.6%
PT [5]: 12 s
Plat [5]: 108.6 x10_4/uL
RBC [5]: 616.2 x10_4/ul
Ret [5]: 6.5%
WBC [5]: 81.9 x10_2/uL
KIDNEY_L [5]: 0.9 g
KIDNEY_R [5]: 0.9 g
KIDNEY_TOTAL [5]: 1.8 g
LIVER [5]: 11.1 g
A/G [5]: 0.9
ALP [5]: 1849 IU/L
ALT [5]: 50.8 IU/L
AST [5]: 75.8 IU/L
BUN [5]: 15.6 mg/dL
CRE [5]: 0.2 mg/dL
Ca [5]: 11 mg/dL
Cl [5]: 107.2 meq/L
DBIL [5]: 0.012 mg/dL
GLC [5]: 188.8 mg/dL
IP [5]: 7.5 mg/dL
K [5]: 4.3 meq/L
LDH [5]: 64.8 IU/L
Na [5]: 143.8 meq/L
PL [5]: 136.4 mg/dL
RALB [5]: 2.7 g/dL
TBIL [5]: 0.024 mg/dL
TC [5]: 78.4 mg/dL
TG [5]: 73.2 mg/dL
TP [5]: 5.8 g/dL
gamma-GTP [5]: 1 IU/L
TERMINAL_BW [6]: 270.7 g
TERMINAL_BW [7]: 321.2 g
TERMINAL_BW [8]: 415.3 g
APTT [6]: 18.3 s
Bas [6]: 0%
Eos [6]: 0.8%
Fbg [6]: 275.8 mg/dL
Hb [6]: 13.2 g/dL
Ht [6]: 39.2%
Lym [6]: 79.2%
MCH [6]: 20.7 pg
MCHC [6]: 33.7%
MCV [6]: 61.4 fL
Mono [6]: 3%
Neu [6]: 16.2%
PT [6]: 11.8 s
Plat [6]: 118.3 x10_4/uL
RBC [6]: 639.2 x10_4/ul
Ret [6]: 6.4%
WBC [6]: 84.5 x10_2/uL
APTT [7]: 16.3 s
Bas [7]: 0%
Eos [7]: 0.8%
Fbg [7]: 282.2 mg/dL
Hb [7]: 14.6 g/dL
Ht [7]: 42.3%
Lym [7]: 83.4%
MCH [7]: 20.9 pg
MCHC [7]: 34.6%
MCV [7]: 60.3 fL
Mono [7]: 1.6%
Neu [7]: 13.6%
PT [7]: 11.7 s
Plat [7]: 118.8 x10_4/uL
RBC [7]: 700.4 x10_4/ul
Ret [7]: 4.7%
WBC [7]: 92.5 x10_2/uL
APTT [8]: 17.5 s
Bas [8]: 0%
Eos [8]: 1.2%
Fbg [8]: 274.6 mg/dL
Hb [8]: 15.1 g/dL
Ht [8]: 43%
Lym [8]: 77.6%
MCH [8]: 19.7 pg
MCHC [8]: 35.1%
MCV [8]: 56.2 fL
Mono [8]: 2.4%
Neu [8]: 18.6%
PT [8]: 11.7 s
Plat [8]: 106.6 x10_4/uL
RBC [8]: 765 x10_4/ul
Ret [8]: 2.5%
WBC [8]: 77 x10_2/uL
KIDNEY_L [6]: 1.1 g
KIDNEY_R [6]: 1.1 g
KIDNEY_TOTAL [6]: 2.1 g
KIDNEY_L [7]: 1.2 g
KIDNEY_R [7]: 1.2 g
KIDNEY_TOTAL [7]: 2.4 g
KIDNEY_L [8]: 1.3 g
KIDNEY_R [8]: 1.3 g
KIDNEY_TOTAL [8]: 2.7 g
LIVER [6]: 13.8 g
LIVER [7]: 16.1 g
LIVER [8]: 17.9 g
A/G [6]: 0.9
ALP [6]: 1690.2 IU/L
ALT [6]: 50 IU/L
AST [6]: 68.4 IU/L
BUN [6]: 17.8 mg/dL
CRE [6]: 0.2 mg/dL
Ca [6]: 11.5 mg/dL
Cl [6]: 106.4 meq/L
DBIL [6]: 0.016 mg/dL
GLC [6]: 183.8 mg/dL
IP [6]: 7.2 mg/dL
K [6]: 4.4 meq/L
LDH [6]: 74.2 IU/L
Na [6]: 143.4 meq/L
PL [6]: 150.8 mg/dL
RALB [6]: 2.8 g/dL
TBIL [6]: 0.028 mg/dL
TC [6]: 84.2 mg/dL
TG [6]: 75.2 mg/dL
TP [6]: 6 g/dL
gamma-GTP [6]: 1 IU/L
A/G [7]: 0.9
ALP [7]: 1402 IU/L
ALT [7]: 41 IU/L
AST [7]: 61 IU/L
BUN [7]: 14.2 mg/dL
CRE [7]: 0.2 mg/dL
Ca [7]: 11.3 mg/dL
Cl [7]: 106.8 meq/L
DBIL [7]: 0.008 mg/dL
GLC [7]: 180.4 mg/dL
IP [7]: 6.9 mg/dL
K [7]: 4.1 meq/L
LDH [7]: 65.8 IU/L
Na [7]: 143.6 meq/L
PL [7]: 140.8 mg/dL
RALB [7]: 2.8 g/dL
TBIL [7]: 0.056 mg/dL
TC [7]: 83 mg/dL
TG [7]: 87.6 mg/dL
TP [7]: 6.1 g/dL
gamma-GTP [7]: 1 IU/L
A/G [8]: 0.8
ALP [8]: 1043 IU/L
ALT [8]: 40.6 IU/L
AST [8]: 60 IU/L
BUN [8]: 15.4 mg/dL
CRE [8]: 0.3 mg/dL
Ca [8]: 10.6 mg/dL
Cl [8]: 106.6 meq/L
DBIL [8]: 0.01 mg/dL
GLC [8]: 176.6 mg/dL
IP [8]: 5.8 mg/dL
K [8]: 4.2 meq/L
LDH [8]: 53 IU/L
Na [8]: 142.8 meq/L
PL [8]: 137.4 mg/dL
RALB [8]: 2.8 g/dL
TBIL [8]: 0.06 mg/dL
TC [8]: 71.2 mg/dL
TG [8]: 117 mg/dL
TP [8]: 6.3 g/dL
gamma-GTP [8]: 1 IU/L
